Columns and labels:
Experiment in all cases: KINOMEscan competition binding
Settings in all cases: compound 10.0 µM
EPHA3 (human) = EPHA3 (human) (UniProt P29320)
PRKCE (human) = PRKCE (human) (UniProt Q02156)
MAP2K2 (human) = MAP2K2 (human) (UniProt P36507)
NTRK3 (human) = NTRK3 (human) (UniProt Q16288)
[1] = test system: ABL1 (human), P00519 [M351T]
MAPK9 (human) = MAPK9 (human) (UniProt P45984)
IRAK3 (human) = IRAK3 (human) (UniProt Q9Y616)
TEC (human) = TEC (human) (UniProt P42680)
MYLK4 (human) = MYLK4 (human) (UniProt Q86YV6)
CDK9 (human) = CDK9 (human) (UniProt P50750)
STK24 (human) = STK24 (human) (UniProt Q9Y6E0)
BRSK2 (human) = BRSK2 (human) (UniProt Q8IWQ3)
CLK3 (human) = CLK3 (human) (UniProt P49761)
PRKD3 (human) = PRKD3 (human) (UniProt O94806)
HCK (human) = HCK (human) (UniProt P08631)
AXL (human) = AXL (human) (UniProt P30530)
INSRR (human) = INSRR (human) (UniProt P14616)
WEE2 (human) = WEE2 (human) (UniProt P0C1S8)
ABL2 (human) = ABL2 (human) (UniProt P42684)
CSNK1G2 (human) = CSNK1G2 (human) (UniProt P78368)
SRC (human) = SRC (human) (UniProt P12931)
PRKX (human) = PRKX (human) (UniProt P51817)
PKN1 (human) = PKN1 (human) (UniProt Q16512)
PRKCQ (human) = PRKCQ (human) (UniProt Q04759)
YES1 (human) = YES1 (human) (UniProt P07947)
MAP4K5 (human) = MAP4K5 (human) (UniProt Q9Y4K4)
SRMS (human) = SRMS (human) (UniProt Q9H3Y6)
PRKG2 (human) = PRKG2 (human) (UniProt Q13237)
MINK1 (human) = MINK1 (human) (UniProt Q8N4C8)
RPS6KA3 KD1 (human) = RPS6KA3 KD1 (human) (UniProt P51812)
CIT (human) = CIT (human) (UniProt O14578)
ERBB2 (human) = ERBB2 (human) (UniProt P04626)
PAK7 (human) = PAK7 (human) (UniProt Q9P286)
MAP4K4 (human) = MAP4K4 (human) (UniProt O95819)
BMPR1B (human) = BMPR1B (human) (UniProt O00238)
STK17B (human) = STK17B (human) (UniProt O94768)
STK33 (human) = STK33 (human) (UniProt Q9BYT3)
BLK (human) = BLK (human) (UniProt P51451)
GAK (human) = GAK (human) (UniProt O14976)
SRPK2 (human) = SRPK2 (human) (UniProt P78362)

Sequence of SRC (human) (P12931 whole entry, looked up): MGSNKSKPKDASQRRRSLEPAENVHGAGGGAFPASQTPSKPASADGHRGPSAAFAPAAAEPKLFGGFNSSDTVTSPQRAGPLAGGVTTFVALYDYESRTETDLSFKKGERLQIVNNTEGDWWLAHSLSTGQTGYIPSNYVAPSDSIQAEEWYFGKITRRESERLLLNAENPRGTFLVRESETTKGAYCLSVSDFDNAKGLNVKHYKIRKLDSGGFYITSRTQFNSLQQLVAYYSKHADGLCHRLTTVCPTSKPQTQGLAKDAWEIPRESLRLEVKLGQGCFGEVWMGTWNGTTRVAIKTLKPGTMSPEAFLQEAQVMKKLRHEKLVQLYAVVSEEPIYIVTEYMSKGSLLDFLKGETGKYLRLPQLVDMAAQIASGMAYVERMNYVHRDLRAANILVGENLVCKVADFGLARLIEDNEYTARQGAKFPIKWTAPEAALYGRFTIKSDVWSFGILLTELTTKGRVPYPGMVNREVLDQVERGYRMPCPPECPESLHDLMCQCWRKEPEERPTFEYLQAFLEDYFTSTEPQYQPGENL
Sequence of CIT (human) (O14578 whole entry, looked up): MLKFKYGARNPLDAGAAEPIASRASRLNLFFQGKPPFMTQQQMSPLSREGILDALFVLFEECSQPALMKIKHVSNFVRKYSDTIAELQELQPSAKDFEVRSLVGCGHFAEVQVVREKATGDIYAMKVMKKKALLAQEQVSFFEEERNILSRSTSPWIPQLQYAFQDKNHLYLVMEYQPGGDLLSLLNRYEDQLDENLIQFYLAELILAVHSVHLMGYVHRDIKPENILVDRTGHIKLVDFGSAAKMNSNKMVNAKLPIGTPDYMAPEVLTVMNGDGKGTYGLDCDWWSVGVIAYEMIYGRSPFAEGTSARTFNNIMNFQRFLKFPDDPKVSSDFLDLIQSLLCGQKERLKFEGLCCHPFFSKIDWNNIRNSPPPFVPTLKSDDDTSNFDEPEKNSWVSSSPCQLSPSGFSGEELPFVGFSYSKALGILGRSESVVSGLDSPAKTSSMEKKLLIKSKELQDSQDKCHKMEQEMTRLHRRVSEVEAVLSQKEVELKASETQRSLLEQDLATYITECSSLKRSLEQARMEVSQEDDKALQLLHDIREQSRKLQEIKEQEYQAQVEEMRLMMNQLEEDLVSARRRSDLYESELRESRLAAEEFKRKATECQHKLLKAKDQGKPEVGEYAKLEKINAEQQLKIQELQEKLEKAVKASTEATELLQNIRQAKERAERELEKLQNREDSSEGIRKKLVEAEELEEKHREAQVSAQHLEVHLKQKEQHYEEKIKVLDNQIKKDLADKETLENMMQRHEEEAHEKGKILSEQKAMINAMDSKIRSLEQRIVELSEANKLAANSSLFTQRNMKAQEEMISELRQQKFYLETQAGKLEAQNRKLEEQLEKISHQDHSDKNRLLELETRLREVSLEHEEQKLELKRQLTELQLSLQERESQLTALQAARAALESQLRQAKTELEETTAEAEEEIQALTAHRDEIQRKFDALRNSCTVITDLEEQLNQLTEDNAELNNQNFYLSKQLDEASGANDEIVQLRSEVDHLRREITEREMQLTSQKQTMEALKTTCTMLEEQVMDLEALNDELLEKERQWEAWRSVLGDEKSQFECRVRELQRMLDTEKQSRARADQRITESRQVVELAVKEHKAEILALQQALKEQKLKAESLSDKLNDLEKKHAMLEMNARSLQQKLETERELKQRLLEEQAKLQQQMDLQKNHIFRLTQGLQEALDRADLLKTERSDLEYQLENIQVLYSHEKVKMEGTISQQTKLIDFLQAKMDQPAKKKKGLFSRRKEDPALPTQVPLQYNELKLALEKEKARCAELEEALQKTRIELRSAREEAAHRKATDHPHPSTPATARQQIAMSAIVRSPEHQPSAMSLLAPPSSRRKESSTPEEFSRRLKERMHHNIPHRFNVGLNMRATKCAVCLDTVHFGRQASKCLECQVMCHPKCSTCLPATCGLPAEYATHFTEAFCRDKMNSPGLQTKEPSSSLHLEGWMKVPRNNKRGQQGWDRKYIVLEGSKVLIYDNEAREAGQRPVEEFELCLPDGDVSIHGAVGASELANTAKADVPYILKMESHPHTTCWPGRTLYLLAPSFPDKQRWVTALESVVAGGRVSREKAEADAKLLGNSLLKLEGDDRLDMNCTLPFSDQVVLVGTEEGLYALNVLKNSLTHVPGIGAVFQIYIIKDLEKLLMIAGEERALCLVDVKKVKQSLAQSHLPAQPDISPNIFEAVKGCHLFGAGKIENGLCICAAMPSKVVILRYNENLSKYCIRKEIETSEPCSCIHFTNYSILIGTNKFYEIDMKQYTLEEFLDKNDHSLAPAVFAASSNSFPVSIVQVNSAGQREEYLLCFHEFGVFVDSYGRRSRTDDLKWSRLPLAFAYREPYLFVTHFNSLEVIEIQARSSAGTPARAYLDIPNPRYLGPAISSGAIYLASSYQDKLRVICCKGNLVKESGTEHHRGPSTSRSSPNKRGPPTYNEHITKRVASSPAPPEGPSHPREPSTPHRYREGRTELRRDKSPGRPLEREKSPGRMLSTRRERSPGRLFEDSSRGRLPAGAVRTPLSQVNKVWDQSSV
Sequence of NTRK3 (human) (Q16288 whole entry, looked up): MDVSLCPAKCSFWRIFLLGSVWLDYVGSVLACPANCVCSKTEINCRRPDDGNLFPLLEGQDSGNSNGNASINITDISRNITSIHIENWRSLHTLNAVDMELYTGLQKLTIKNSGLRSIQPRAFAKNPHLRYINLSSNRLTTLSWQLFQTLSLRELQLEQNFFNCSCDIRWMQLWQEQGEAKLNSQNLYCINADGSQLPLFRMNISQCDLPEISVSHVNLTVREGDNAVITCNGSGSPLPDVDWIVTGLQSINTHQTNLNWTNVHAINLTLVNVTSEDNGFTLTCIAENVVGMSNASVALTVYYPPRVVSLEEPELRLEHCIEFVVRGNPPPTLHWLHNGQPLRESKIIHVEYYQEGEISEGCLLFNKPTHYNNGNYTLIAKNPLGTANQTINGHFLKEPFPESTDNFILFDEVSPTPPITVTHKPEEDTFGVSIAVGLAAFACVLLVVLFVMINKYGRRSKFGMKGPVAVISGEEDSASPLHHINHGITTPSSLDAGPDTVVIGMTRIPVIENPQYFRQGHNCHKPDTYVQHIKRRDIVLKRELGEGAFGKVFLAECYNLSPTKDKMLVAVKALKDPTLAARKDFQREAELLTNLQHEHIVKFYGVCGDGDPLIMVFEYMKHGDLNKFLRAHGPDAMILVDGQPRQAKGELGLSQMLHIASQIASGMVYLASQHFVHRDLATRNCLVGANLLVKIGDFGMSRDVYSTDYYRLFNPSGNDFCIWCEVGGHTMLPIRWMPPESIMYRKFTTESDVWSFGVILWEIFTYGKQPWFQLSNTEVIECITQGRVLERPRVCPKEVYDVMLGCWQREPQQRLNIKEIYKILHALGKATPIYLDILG
Sequence of IRAK3 (human) (Q9Y616 whole entry, looked up): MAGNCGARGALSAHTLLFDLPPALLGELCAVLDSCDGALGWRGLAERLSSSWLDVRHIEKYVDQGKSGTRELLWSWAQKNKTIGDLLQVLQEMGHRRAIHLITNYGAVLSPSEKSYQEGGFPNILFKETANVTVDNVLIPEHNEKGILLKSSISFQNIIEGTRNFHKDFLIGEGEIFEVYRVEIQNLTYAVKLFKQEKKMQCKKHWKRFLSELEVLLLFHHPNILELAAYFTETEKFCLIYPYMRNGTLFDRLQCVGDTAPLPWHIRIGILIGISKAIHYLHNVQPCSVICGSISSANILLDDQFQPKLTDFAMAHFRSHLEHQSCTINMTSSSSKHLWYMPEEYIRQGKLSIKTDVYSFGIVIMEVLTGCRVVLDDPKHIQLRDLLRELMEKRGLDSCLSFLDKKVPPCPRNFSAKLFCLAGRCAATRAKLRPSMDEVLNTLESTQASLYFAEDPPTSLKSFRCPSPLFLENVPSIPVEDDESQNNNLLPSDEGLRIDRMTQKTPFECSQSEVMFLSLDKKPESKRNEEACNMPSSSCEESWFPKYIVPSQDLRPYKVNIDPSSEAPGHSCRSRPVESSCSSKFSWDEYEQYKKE
Sequence of STK24 (human) (Q9Y6E0 whole entry, looked up): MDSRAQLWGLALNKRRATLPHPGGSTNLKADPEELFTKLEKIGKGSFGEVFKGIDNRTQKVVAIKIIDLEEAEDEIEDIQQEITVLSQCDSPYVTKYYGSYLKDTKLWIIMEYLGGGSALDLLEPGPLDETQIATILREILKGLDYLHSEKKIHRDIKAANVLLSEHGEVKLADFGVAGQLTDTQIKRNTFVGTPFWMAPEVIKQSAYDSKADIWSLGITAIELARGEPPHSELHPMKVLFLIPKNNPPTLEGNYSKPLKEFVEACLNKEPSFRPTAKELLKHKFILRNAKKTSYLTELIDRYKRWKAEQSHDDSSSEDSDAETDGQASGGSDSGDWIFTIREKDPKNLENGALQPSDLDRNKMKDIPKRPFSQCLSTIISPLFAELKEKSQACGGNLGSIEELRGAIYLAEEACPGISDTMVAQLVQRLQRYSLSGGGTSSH
Sequence of TEC (human) (P42680 whole entry, looked up): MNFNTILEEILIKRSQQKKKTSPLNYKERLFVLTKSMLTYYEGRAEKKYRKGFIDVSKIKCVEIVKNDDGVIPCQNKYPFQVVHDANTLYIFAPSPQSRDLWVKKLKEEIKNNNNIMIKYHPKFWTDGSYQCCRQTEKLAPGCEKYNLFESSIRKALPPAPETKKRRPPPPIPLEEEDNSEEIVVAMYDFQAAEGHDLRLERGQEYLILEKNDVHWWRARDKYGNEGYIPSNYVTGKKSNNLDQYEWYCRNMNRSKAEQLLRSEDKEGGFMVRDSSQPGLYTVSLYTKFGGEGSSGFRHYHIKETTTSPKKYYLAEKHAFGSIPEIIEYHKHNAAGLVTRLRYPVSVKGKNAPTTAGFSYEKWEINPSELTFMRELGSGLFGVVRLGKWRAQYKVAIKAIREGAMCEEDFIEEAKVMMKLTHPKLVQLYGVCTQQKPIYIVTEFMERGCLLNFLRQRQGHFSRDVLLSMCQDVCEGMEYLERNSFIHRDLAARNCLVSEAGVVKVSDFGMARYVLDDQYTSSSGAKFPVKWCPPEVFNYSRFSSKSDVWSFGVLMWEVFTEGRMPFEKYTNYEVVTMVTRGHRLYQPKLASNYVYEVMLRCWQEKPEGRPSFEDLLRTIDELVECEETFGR

Work on `Cc1ccc2nc(NCCN)c3ncc(C)n3c2c1` yielded a kinase still bound, per cent of control (EPHA3 (human)) of 100%, a kinase still bound, per cent of control (PRKCE (human)) of 100% and a kinase still bound, per cent of control (MAP2K2 (human)) of 77%. For the same compound, the kinase still bound, per cent of control (NTRK3 (human)) was 100%, the kinase still bound, per cent of control [1] was 100% and the kinase still bound, per cent of control (MAPK9 (human)) was 44%. For the same compound, the kinase still bound, per cent of control (IRAK3 (human)) was 72%, the kinase still bound, per cent of control (TEC (human)) was 100% and the kinase still bound, per cent of control (MYLK4 (human)) was 8.8%. For the same compound, the kinase still bound, per cent of control (CDK9 (human)) was 35%, the kinase still bound, per cent of control (STK24 (human)) was 81% and the kinase still bound, per cent of control (BRSK2 (human)) was 100%. The kinase still bound, per cent of control (CLK3 (human)) was 47%, the kinase still bound, per cent of control (PRKD3 (human)) was 41% and the kinase still bound, per cent of control (HCK (human)) was 100%. The kinase still bound, per cent of control (AXL (human)) was 100%, the kinase still bound, per cent of control (INSRR (human)) was 100% and the kinase still bound, per cent of control (WEE2 (human)) was 100%. For the same compound, the kinase still bound, per cent of control (ABL2 (human)) was 100%, the kinase still bound, per cent of control (CSNK1G2 (human)) was 97% and the kinase still bound, per cent of control (SRC (human)) was 100%. For the same compound, the kinase still bound, per cent of control (PRKX (human)) was 86%, the kinase still bound, per cent of control (PKN1 (human)) was 92% and the kinase still bound, per cent of control (PRKCQ (human)) was 99%. The kinase still bound, per cent of control (YES1 (human)) was 100%, the kinase still bound, per cent of control (MAP4K5 (human)) was 96% and the kinase still bound, per cent of control (SRMS (human)) was 90%. For the same compound, the kinase still bound, per cent of control (PRKG2 (human)) was 100%, the kinase still bound, per cent of control (MINK1 (human)) was 100% and the kinase still bound, per cent of control (RPS6KA3 KD1 (human)) was 100%. For the same compound, the kinase still bound, per cent of control (CIT (human)) was 100%, the kinase still bound, per cent of control (ERBB2 (human)) was 100% and the kinase still bound, per cent of control (PAK7 (human)) was 100%. The kinase still bound, per cent of control (MAP4K4 (human)) was 100%, the kinase still bound, per cent of control (BMPR1B (human)) was 71% and the kinase still bound, per cent of control (STK17B (human)) was 100%. It also gave a kinase still bound, per cent of control (STK33 (human)) of 73%, a kinase still bound, per cent of control (BLK (human)) of 100% and a kinase still bound, per cent of control (GAK (human)) of 79%. For the same compound, the kinase still bound, per cent of control (SRPK2 (human)) was 89%.
`Nc1ccc(-c2ccc3ncc4ccc(=O)n(-c5cccc(C(F)(F)F)c5)c4c3c2)cn1` was tested, and the kinase still bound, per cent of control (EPHA3 (human)) was 86%, the kinase still bound, per cent of control (PRKCE (human)) was 69% and the kinase still bound, per cent of control (MAP2K2 (human)) was 100%. For the same compound, the kinase still bound, per cent of control (NTRK3 (human)) was 100%, the kinase still bound, per cent of control [1] was 100% and the kinase still bound, per cent of control (MAPK9 (human)) was 89%. It also gave a kinase still bound, per cent of control (IRAK3 (human)) of 42%, a kinase still bound, per cent of control (TEC (human)) of 100% and a kinase still bound, per cent of control (MYLK4 (human)) of 97%. The kinase still bound, per cent of control (CDK9 (human)) was 93%, the kinase still bound, per cent of control (STK24 (human)) was 98% and the kinase still bound, per cent of control (BRSK2 (human)) was 100%. It also gave a kinase still bound, per cent of control (CLK3 (human)) of 71%, a kinase still bound, per cent of control (PRKD3 (human)) of 100% and a kinase still bound, per cent of control (HCK (human)) of 100%. It also gave a kinase still bound, per cent of control (AXL (human)) of 74%, a kinase still bound, per cent of control (INSRR (human)) of 100% and a kinase still bound, per cent of control (WEE2 (human)) of 100%. For the same compound, the kinase still bound, per cent of control (ABL2 (human)) was 100%, the kinase still bound, per cent of control (CSNK1G2 (human)) was 100% and the kinase still bound, per cent of control (SRC (human)) was 100%. For the same compound, the kinase still bound, per cent of control (PRKX (human)) was 100%, the kinase still bound, per cent of control (PKN1 (human)) was 100% and the kinase still bound, per cent of control (PRKCQ (human)) was 100%. It also gave a kinase still bound, per cent of control (YES1 (human)) of 100%, a kinase still bound, per cent of control (MAP4K5 (human)) of 100% and a kinase still bound, per cent of control (SRMS (human)) of 88%. For the same compound, the kinase still bound, per cent of control (PRKG2 (human)) was 89%, the kinase still bound, per cent of control (MINK1 (human)) was 56% and the kinase still bound, per cent of control (RPS6KA3 KD1 (human)) was 80%. For the same compound, the kinase still bound, per cent of control (CIT (human)) was 100%, the kinase still bound, per cent of control (ERBB2 (human)) was 97% and the kinase still bound, per cent of control (PAK7 (human)) was 69%. It also gave a kinase still bound, per cent of control (MAP4K4 (human)) of 71%, a kinase still bound, per cent of control (BMPR1B (human)) of 86% and a kinase still bound, per cent of control (STK17B (human)) of 89%. It also gave a kinase still bound, per cent of control (STK33 (human)) of 100%, a kinase still bound, per cent of control (BLK (human)) of 98% and a kinase still bound, per cent of control (GAK (human)) of 56%. The kinase still bound, per cent of control (SRPK2 (human)) was 100%.
`Cc1cc([C@@H](C)Nc2ccccc2C(=O)O)c2nc(N3CCOCC3)cc(=O)n2c1` showed a kinase still bound, per cent of control (EPHA3 (human)) of 79%, a kinase still bound, per cent of control (PRKCE (human)) of 100% and a kinase still bound, per cent of control (MAP2K2 (human)) of 100%. It also gave a kinase still bound, per cent of control (NTRK3 (human)) of 98%, a kinase still bound, per cent of control [1] of 94% and a kinase still bound, per cent of control (MAPK9 (human)) of 66%. It also gave a kinase still bound, per cent of control (IRAK3 (human)) of 58%, a kinase still bound, per cent of control (TEC (human)) of 91% and a kinase still bound, per cent of control (MYLK4 (human)) of 98%. For the same compound, the kinase still bound, per cent of control (CDK9 (human)) was 100%, the kinase still bound, per cent of control (STK24 (human)) was 100% and the kinase still bound, per cent of control (BRSK2 (human)) was 100%. For the same compound, the kinase still bound, per cent of control (CLK3 (human)) was 100%, the kinase still bound, per cent of control (PRKD3 (human)) was 100% and the kinase still bound, per cent of control (HCK (human)) was 100%. For the same compound, the kinase still bound, per cent of control (AXL (human)) was 86%, the kinase still bound, per cent of control (INSRR (human)) was 100% and the kinase still bound, per cent of control (WEE2 (human)) was 100%. The kinase still bound, per cent of control (ABL2 (human)) was 95%, the kinase still bound, per cent of control (CSNK1G2 (human)) was 88% and the kinase still bound, per cent of control (SRC (human)) was 100%. The kinase still bound, per cent of control (PRKX (human)) was 91%, the kinase still bound, per cent of control (PKN1 (human)) was 100% and the kinase still bound, per cent of control (PRKCQ (human)) was 97%. The kinase still bound, per cent of control (YES1 (human)) was 100%, the kinase still bound, per cent of control (MAP4K5 (human)) was 96% and the kinase still bound, per cent of control (SRMS (human)) was 63%. The kinase still bound, per cent of control (PRKG2 (human)) was 98%, the kinase still bound, per cent of control (MINK1 (human)) was 100% and the kinase still bound, per cent of control (RPS6KA3 KD1 (human)) was 91%. The kinase still bound, per cent of control (CIT (human)) was 89%, the kinase still bound, per cent of control (ERBB2 (human)) was 100% and the kinase still bound, per cent of control (PAK7 (human)) was 99%. For the same compound, the kinase still bound, per cent of control (MAP4K4 (human)) was 97%, the kinase still bound, per cent of control (BMPR1B (human)) was 69% and the kinase still bound, per cent of control (STK17B (human)) was 100%. It also gave a kinase still bound, per cent of control (STK33 (human)) of 100%, a kinase still bound, per cent of control (BLK (human)) of 99% and a kinase still bound, per cent of control (GAK (human)) of 75%. For the same compound, the kinase still bound, per cent of control (SRPK2 (human)) was 85%.
